From patent US20230365563A1, “QUINAZOLINE COMPOUND AND APPLICATION THEREOF” (SHANGHAI PHARMACEUTICALS HOLDING CO., LTD., priority 2020, published 2023) come the findings set out here.

One test addresses T1, KRAS_G12D and cRAF (Homo sapiens, UniProt P01116, G12D).
T1 construct: purchased
In words: Inhibition of KRAS_G12D/cRAF binding (Cisbio binding kit, 665/615 ratio), Effect Embodiment B. To be noted: read-out: GTP-KRAS-G12D:CRAF IC50. As to the method:
(§1) Similarly, the first dilution point of the compound to be tested was its storage solution, and the solution was 3-fold diluted, with 11+0 points of dilution. Echo was used to transfer 0.2 μL gradient diluted solution of the compounds into a 384-well plate, with 2 duplicated wells for each compound, and the final concentration of DMSO was 1%. The solution was centrifuged for 1 min at 1000 rpm/min.
(§2) IC50 of the compounds was fitted by Graphpad Prism 8 nonlinear regression equation: […]
(§3) The IC50 (half inhibitory concentration) of the compound was obtained by using the following nonlinear fitting formula: […]

Another test has as its target T2, KRAS-G12D and SOS1 (Homo sapiens, UniProt P01116, G12D).
T2 construct: purchased
In words: Inhibition of KRAS-G12D/SOS1 binding (Cisbio binding kit, 665/615 ratio), Effect Embodiment A. To be noted: read-out: GTP-KRAS-G12D:SOS1 IC50. An outline of the steps:
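Compounds underwent 3-fold dilution from their storage solutions (11 points), were transferred to assay wells in duplicate with DMSO held at 1% final, and were briefly centrifuged.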

The target of the next test is T3, KRAS_WT and SOS1 (Homo sapiens, UniProt P01116).
T3 construct: purchased
T3 sequence (P01116 1-188 isoform P01116-2): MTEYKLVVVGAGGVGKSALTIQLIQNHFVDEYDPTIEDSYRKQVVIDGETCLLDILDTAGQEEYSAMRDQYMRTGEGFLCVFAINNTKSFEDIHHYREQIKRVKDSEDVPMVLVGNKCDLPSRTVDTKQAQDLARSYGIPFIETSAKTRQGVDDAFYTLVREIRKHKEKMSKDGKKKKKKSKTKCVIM
In words: Inhibition of KRAS_WT/SOS1 binding (Cisbio binding kit, 665/615 ratio), Effect Embodiment C. Conditions: read-out: GTP-KRAS-WT:SOS1 IC50. As for the experimental part: The inhibitory ability of small molecule compounds on the binding activity of KRAS_WT and SOS1 was examined by a drug screening system based on the combination of KRAS_WT and SOS1.
as §1, §2, §3

Counter-ions that a name gives are not always drawn.

T2 sequence (P01116 1-188 isoform P01116-2 G12D): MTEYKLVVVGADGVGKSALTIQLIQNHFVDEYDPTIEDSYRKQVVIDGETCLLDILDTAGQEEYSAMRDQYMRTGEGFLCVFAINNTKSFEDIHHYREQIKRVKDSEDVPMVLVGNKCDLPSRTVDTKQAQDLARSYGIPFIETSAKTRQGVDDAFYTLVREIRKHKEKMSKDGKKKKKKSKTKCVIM
T1 sequence (P01116 1-188 isoform P01116-2 G12D): as above

Take `CN1CCC2(C1)CN(c1nc(N3CC4CCC(C3)N4)c3cc(Cl)c(-c4cc(O)cc5ccccc45)c(F)c3n1)C2` (single isomer, unassigned) [Compound 61a, 4-((S or R)-4-((1R,5S)-3,8-diazabicyclo[3.2.1]octan-3-yl)-6-chloro-8-fluoro-2-(6-methyl-2,6-diazaspiro[3.4]octan-2-yl)quinazolin-7-yl)naphthalen-2-ol]: the IC50 on KRAS_G12D and cRAF is 1600 nM; on KRAS-G12D and SOS1, 230 nM; at KRAS_WT and SOS1, 68300 nM.
Taken in the same sequence, the figures for `Oc1cc(-c2c(Cl)cc3c(N4CC5CCC(C4)N5)nc(OCC4(CN5C6CCC5COC6)COC4)nc3c2F)c2ccccc2c1` (single isomer, unassigned) [Compound 204, 4-((7S or 7R)-2-((3-(3-oxa-8-azabicyclo[3.2.1]octan-8-ylmethyl)oxa-3-yl)methoxy)-4-((1R,5S)-3,8-diazabicyclo[3.2.1]octan-3-yl)-6-chloro-8-fluoroquinazolin-7-yl)naphthalen-2-ol ditrifluoroacetate] were 121 nM, 77.4 nM and 4250 nM.
Consider `CO[C@H]1CCN(CCCOc2nc(N3CC4CCC(C3)N4)c3cc(Cl)c(-c4cc(O)cc5ccccc45)c(F)c3n2)[C@H](C)C1` (single isomer, unassigned) [Compound 258, 4-((S or R)-4-((1R,5S)-3,8-diazacyclo[3.2.1]octan-3-yl)-6-chloro-8-fluoro-2-(3-((2R,4S)-4-methoxy-2-methylpiperidin-1-yl)propoxy)quinazolin-7-yl)naphthalen-2-ol diformate], for which the IC50 at KRAS_G12D and cRAF turned out to be 219 nM; at KRAS-G12D and SOS1 it was 26.9 nM; at KRAS_WT and SOS1, 6130 nM.
As for `CC(C)NCCCOc1nc(N2CC3CCC(C2)N3)c2cc(Cl)c(-c3cc(O)cc4ccccc34)c(F)c2n1` (single isomer, unassigned) [Compound 101, 4-((S or R)-4-((1R,5S)-3,8-diazabicyclo[3.2.1]octan-3-yl)-6-chloro-8-fluoro-2-(3-(isopropylamino)propoxy)quinazolin-7-yl)naphthalen-2-ol dihydrochloride], the IC50 was found to be 182 nM on KRAS_G12D and cRAF; 31.7 nM on KRAS-G12D and SOS1; 2470 nM on KRAS_WT and SOS1.
`CN1CC(COc2nc(N3CC4CCC(C3)N4)c3cc(Cl)c(-c4cc(O)cc5ccccc45)c(F)c3n2)C1` (single isomer, unassigned) [Compound 91, 4-((S or R)-4-((1R,5S)-3,8-diazabicyclo[3.2.1]octan-3-yl)-6-chloro-8-fluoro-2-((1-methylazetidin-3-yl)methoxy)quinazolin-7-yl)naphthalen-2-ol tritrifluoroacetate]: the IC50 came to 78.2 nM at KRAS_G12D and cRAF; 15.1 nM on KRAS-G12D and SOS1; 1100 nM on KRAS_WT and SOS1.
Turning to `CN(C)C1CN(c2nc(N3[C@@H]4CC[C@H]3CNC4)c3cc(Cl)c(-c4cc(O)cc5ccccc45)c(F)c3n2)C1` (single isomer, unassigned) [Compound 6a, (R or S)-4-(4-((1R,5S)-3,8-diazabicyclo [3.2.1]octan-8-yl)-6-chloro-2-(3-(dimethylamino)azetidin-1-yl)-8-fluoro-quinazolin-7-yl)naphthalen-2-ol], the IC50 is 66 nM at KRAS_G12D and cRAF; 66.4 nM on KRAS-G12D and SOS1; 293 nM on KRAS_WT and SOS1.
Taken in the same sequence, the figures for `CN1CCC[C@H]1COc1nc(N2CC3CCC(C2)N3)c2cc(Cl)c(-c3cc(O)cc4ccccc34)c(F)c2n1` (single isomer, unassigned) [Compound 39a, (S or R)-4-(4-((1R,5S)-3,8-diazabicyclo[3.2.1]octan-3-yl)-6-chloro-8-fluoro-2-((S)-1-methylpyrrolidin-2-yl)methoxy)quinazolin-7-yl)naphthalen-2-ol] were 26.2 nM, 27.7 nM and 342 nM.
In the same order, the values of `CN(C)C1CN(c2nc(N3CC4CCC(C3)N4)c3cc(Cl)c(-c4cc(O)cc5cccc(F)c45)c(F)c3n2)C1` (single isomer, unassigned) [Compound 64b, 4-((R or S)-4-((1R,5S)-3,8-diazabicyclo[3.2.1]octan-3-yl)-6-chloro-2-(3-(dimethylamino)azetidin-1-yl)-8-fluoroquinazolin-7-yl)-5-fluoronaphthalen-2-ol] are 283 nM, 44.6 nM and 1250 nM.
With `CN1C[C@@H](F)C[C@H]1COc1nc(N2CC3CCC(C2)N3)c2cnc(-c3cc(O)cc4ccccc34)c(F)c2n1` [Compound 129, 4-(4-((1R,5S)-3,8-diazabicyclo[3.2.1]octan-3-yl)-8-fluoro-2-((2S,4S)-4-fluoro-1-methylpyrrolidin-2-yl)methoxy)pyridinyl[4.3-d]pyrimidin-7-yl)naphthalen-2-ol ditrifluoroacetate], the IC50 on KRAS_G12D and cRAF was 180 nM; at KRAS-G12D and SOS1 it was 42 nM; at KRAS_WT and SOS1, 2270 nM.
As for `C[C@@H](COc1nc(N2CC3CCC(C2)N3)c2cc(Cl)c(-c3cc(O)cc4ccccc34)c(F)c2n1)CN1C2CC3CC1CC(C2)O3` (single isomer, unassigned) [Compound 230, 4-((S or R)-2-((R)-3-((1R,3R,5R,7R)-2-oxa-6-azadamantan-6-yl)-2-methylpropoxy)-4-((1R,5S)-3,8-diazabicyclo[3.2.1]octan-3-yl)-6-chloro-8-fluoroquinazolin-7-yl)naphthalen-2-ol diformate], the IC50 stood at 28.1 nM on KRAS_G12D and cRAF; 15.7 nM at KRAS-G12D and SOS1; 626 nM at KRAS_WT and SOS1.
With `CCc1c(F)ccc2cc(O)cc(-c3c(F)cc4c(N5CC6CCC(C5)N6)nc(OCCCN5C[C@@H](C)O[C@@H](C)C5)nc4c3F)c12` (single isomer, unassigned) [Compound 250a, (S or R)-4-(4-((1R,5S)-3,8-diazacyclo[3.2.1]octan-3-yl)-2-(3-((2R,6S)-2,6-dimethylmorpholinyl)propoxy)-6,8-difluoroquinazolin-7-yl)-5-ethyl-6-fluoronaphthalen-2-ol formate], the IC50 on KRAS_G12D and cRAF came out at 14.6 nM; at KRAS-G12D and SOS1, 8.42 nM; on KRAS_WT and SOS1, 75.2 nM.
As to `CN(C)C1CN(c2nc(N3CCNC4CC43)c3cc(Cl)c(-c4cc(O)cc5ccccc45)c(F)c3n2)C1` (single isomer, unassigned) [Compound 28, 4-((S or R)-4-((1R,6S or 1S,6R)-2,5-diazabicyclo[4.1.0]heptan-2-yl)-6-chloro-2-(3-(dimethylamino)azetidin-1-yl)-8-fluoroquinazolin-7-yl)naphthalen-2-ol trifluoroacetate], the IC50 on KRAS_G12D and cRAF amounted to 4700 nM; on KRAS-G12D and SOS1 it was 312 nM; on KRAS_WT and SOS1, 22500 nM.
Turning to `NCCCCOc1nc(N2CC3CCC(C2)N3)c2cc(Cl)c(-c3cc(O)cc4ccccc34)c(F)c2n1` (single isomer, unassigned) [Compound 95, 4-((S or R)-2-(4-aminobutoxy)-4-((1R,5S)-3,8-diazabicyclo[3.2.1]octan-3-yl)-6-chloro-8-fluoroquinazolin-7-yl)naphthalen-2-ol dihydrochloride], the IC50 at KRAS_G12D and cRAF was determined as 284 nM; at KRAS-G12D and SOS1, 48.2 nM; on KRAS_WT and SOS1, 6660 nM.
On to `Oc1cc(-c2c(Cl)cc3c(N4CC5CCC(C4)N5)nc(OCCCN4CCC5(CCOC5)CC4)nc3c2F)c2ccccc2c1` (single isomer, unassigned) [Compound 261, 4-((S or R)-2-(3-(2-oxa-8-azaspiro[4.5]decan-8-yl)propoxy)-4-((1R,5S)-3,8-diazacyclo[3.2.1]octan-3-yl)-6-chloro-8-fluoroquinazolin-7-yl)naphthalen-2-ol diformate], for which the IC50 at KRAS_G12D and cRAF turned out to be 102 nM; on KRAS-G12D and SOS1 it was 18.7 nM; at KRAS_WT and SOS1, 1080 nM.
In the same order, the values of `CN(C)C1CCC(Oc2nc(N3CC4CCC(C3)N4)c3cc(Cl)c(-c4cc(O)cc5ccccc45)c(F)c3n2)C1` (single isomer, unassigned) [Compound 70b, 4-((S or R)-4-((1R,5S)-3,8-diazabicyclo[3.2.1]octan-3-yl)-6-chloro-2-((1R,3S or 1S,3R)-3-(dimethylamino)cyclopentyl)oxy)-8-fluoroquinazolin-7-yl)naphthalen-2-ol dihydrochloride] are 515 nM, 66 nM and greater than 100000 nM.
On to `C[C@@H]1COCCN1CCCOc1nc(N2C[C@H]3CC[C@@H](C2)N3)c2cc(Cl)c(-c3cc(O)cc4ccccc34)c(F)c2n1` (single isomer, unassigned) [Compound 181, (R or S)-4-(4-((1R,5S)-3,8-diazabicyclo[3.2.1]octan-3-yl)-6-chloro-8-fluoro-2-(3-((R)-3-methylmorpholinyl)propoxy)quinazolin-7-yl)naphthalen-2-ol diformate], for which the half-inhibitory concentration (IC50) was determined as 136 nM at KRAS_G12D and cRAF; 38.1 nM on KRAS-G12D and SOS1; 3090 nM at KRAS_WT and SOS1.
As to `CN1CC(C)(COc2nc(N3CC4CCC(C3)N4)c3cc(Cl)c(-c4cc(O)cc5ccccc45)c(F)c3n2)C1` (single isomer, unassigned) [Compound 110, 4-((S or R)-4-((1R,5S)-3,8-diazacyclo[3.2.1]octan-3-yl)-6-chloro-2-((1,3-dimethylnonanetriacyl)methoxy)-8-fluoroquinazin-7-yl)naphthalen-2-ol ditrifluoroacetate], the IC50 at KRAS_G12D and cRAF amounted to 143 nM; on KRAS-G12D and SOS1, 39.6 nM; at KRAS_WT and SOS1 it was 1530 nM.
